Experimental data: ChEMBL document CHEMBL4145686, “Discovery of a Potent and Selective Steroidal Glucocorticoid Receptor Antagonist (ORIC-101)” (J Med Chem, 2018); call rule not given here

Tests used:
Androgen receptor [1] = target: T1, Androgen receptor (Homo sapiens, UniProt P10275); assay: Agonist activity at AR in human MDA-MB-453 cells assessed as increase in CLDN8 gene expression at 111 to 333 nM incubated for 24 hrs by RT-qPCR method; assay type: cell-based; conditions: mda-mb-453, 24 h, 0.333 µM
T1 sequence (P10275 whole entry): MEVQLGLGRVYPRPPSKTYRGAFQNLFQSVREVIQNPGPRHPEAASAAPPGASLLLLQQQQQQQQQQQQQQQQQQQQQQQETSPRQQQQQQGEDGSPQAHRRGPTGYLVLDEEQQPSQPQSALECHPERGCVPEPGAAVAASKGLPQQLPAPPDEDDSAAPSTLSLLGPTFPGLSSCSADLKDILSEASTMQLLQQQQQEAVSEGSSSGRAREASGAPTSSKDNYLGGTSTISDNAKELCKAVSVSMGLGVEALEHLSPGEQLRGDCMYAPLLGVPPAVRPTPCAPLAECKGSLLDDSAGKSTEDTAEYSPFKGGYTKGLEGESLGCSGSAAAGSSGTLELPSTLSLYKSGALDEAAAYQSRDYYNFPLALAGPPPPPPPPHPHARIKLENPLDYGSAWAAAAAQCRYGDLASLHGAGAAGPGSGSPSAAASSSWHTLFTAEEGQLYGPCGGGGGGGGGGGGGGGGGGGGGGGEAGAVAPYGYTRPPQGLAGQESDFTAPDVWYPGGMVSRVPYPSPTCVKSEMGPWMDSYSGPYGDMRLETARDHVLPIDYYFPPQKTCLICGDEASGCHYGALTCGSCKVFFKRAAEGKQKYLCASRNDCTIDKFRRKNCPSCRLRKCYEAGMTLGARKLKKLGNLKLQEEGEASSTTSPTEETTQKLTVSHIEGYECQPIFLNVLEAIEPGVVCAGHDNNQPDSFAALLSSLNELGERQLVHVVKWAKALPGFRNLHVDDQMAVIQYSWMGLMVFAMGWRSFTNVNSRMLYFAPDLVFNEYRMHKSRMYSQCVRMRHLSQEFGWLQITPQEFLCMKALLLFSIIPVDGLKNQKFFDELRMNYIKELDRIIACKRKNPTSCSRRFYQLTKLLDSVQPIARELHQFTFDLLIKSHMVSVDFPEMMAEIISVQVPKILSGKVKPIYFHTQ

Androgen receptor [2] = target: T1, Androgen receptor; assay: Agonist activity at AR in human MDA-MB-453 cells assessed as increase in SEC14L2 gene expression at 111 to 333 nM incubated for 24 hrs by RT-qPCR method; assay type: cell-based; conditions: mda-mb-453, 24 h, 0.333 µM
[3] = Cmax in rat at 5 mg/kg, po; assay type: ADME, organism-based; design: dose 5 mg/kg, route oral; conditions: in vivo
[4] = Volume of distribution at steady state in mini pig at 0.5 mg/kg, iv; assay type: ADME, organism-based, Sus scrofa; conditions: in vivo, read-out: Vdss
Cytochrome P450 3A4 = Cytochrome P450 3A4 (Homo sapiens, UniProt P08684); assay: Inhibition of CYP3A4 (unknown origin) using midazolam as substrate; assay type: ADME
Cytochrome P450 3A4, sequence (P08684 whole entry): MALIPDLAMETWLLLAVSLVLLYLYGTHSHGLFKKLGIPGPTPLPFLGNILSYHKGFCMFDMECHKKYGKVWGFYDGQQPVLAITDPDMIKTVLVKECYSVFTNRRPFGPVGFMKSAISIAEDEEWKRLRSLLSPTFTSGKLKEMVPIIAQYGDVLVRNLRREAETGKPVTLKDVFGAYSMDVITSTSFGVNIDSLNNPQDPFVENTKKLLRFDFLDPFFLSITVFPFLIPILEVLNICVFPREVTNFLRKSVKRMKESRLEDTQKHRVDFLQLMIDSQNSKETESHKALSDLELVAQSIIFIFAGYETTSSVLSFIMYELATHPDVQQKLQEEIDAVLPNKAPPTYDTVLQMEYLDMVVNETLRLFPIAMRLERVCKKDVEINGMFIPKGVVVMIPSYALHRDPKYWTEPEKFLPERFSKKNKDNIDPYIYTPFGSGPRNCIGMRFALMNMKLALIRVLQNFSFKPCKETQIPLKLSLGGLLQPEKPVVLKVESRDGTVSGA

Cytochrome P450 2C8 = target: T2, Cytochrome P450 2C8 (Homo sapiens, UniProt P10632); assay: Inhibition of CYP2C8 (unknown origin) using […] as substrate; assay type: ADME
T2 sequence (P10632 whole entry): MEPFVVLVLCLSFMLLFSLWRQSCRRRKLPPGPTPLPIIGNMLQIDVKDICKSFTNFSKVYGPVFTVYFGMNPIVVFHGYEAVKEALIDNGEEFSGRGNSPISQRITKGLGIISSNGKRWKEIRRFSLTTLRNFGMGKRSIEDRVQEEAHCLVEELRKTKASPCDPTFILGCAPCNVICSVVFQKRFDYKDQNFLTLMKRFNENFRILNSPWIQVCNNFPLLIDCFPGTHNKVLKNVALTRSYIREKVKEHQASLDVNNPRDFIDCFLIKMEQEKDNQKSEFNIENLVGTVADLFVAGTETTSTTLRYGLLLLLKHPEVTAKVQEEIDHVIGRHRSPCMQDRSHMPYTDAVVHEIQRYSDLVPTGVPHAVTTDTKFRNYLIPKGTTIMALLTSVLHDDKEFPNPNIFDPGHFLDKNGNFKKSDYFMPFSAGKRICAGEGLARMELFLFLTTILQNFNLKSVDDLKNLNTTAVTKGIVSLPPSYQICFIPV

Glucocorticoid receptor = target: T3, Glucocorticoid receptor (Sus scrofa, UniProt Q9N1U3); assay: Antagonist activity at GR in mini pig PBMC assessed as reduction in dexamethasone-induced FKBP5 gene expression incubated for 24 hrs by RT-qPCR method; assay type: cell-based
T3 sequence (Q9N1U3 whole entry): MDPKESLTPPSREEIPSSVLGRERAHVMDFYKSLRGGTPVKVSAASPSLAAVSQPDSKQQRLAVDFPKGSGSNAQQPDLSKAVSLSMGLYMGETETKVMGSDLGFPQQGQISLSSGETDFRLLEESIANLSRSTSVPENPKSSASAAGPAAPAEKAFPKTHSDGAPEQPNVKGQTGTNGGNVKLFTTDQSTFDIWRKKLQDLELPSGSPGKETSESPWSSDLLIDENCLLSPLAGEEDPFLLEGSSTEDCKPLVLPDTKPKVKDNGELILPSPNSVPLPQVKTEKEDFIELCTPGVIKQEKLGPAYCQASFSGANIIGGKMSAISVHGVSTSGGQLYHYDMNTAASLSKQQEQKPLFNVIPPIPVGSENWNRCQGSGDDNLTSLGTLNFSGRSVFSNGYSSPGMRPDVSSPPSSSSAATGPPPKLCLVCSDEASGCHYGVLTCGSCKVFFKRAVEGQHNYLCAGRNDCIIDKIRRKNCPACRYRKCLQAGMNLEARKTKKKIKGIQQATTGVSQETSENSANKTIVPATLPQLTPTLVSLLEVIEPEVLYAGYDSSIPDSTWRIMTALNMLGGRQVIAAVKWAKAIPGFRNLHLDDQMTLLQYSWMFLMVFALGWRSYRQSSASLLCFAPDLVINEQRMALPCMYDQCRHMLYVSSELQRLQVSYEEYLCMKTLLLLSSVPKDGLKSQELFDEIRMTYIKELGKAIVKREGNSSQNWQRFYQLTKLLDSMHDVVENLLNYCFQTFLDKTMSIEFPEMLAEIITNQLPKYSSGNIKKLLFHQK

SMILES: CC(C)N(C)c1ccc([C@H]2C[C@@]3(C)[C@@H](CC[C@@]3(O)C#CC(C)(C)C)[C@@H]3CCC4=CC(=O)CC[C@@H]4[C@H]32)cc1
- Activity (Androgen receptor [1]): Not Active
- Activity (Androgen receptor [2]): Not Active
- Cmax [3]: 149 ng/mL
- Vd [4]: 7.8 L/kg
- IC50 (Cytochrome P450 3A4): 1600 nM
- IC50 (Cytochrome P450 2C8): > 10000 nM
- IC50 (Glucocorticoid receptor): 39.3 nM
